Assay results reported in patent US5032593A, “Method of treating bronchoconstriction with 1,3-unsymmetrical straight chain alkyl-substituted 8-phenylxanthines” (priority 1988, dated 1991).
Where two headings read alike, the source gives them in different places.

Tests used:
[1] = tested on: antigen-induced bronchoconstriction; experiment: Prevention of antigen-induced bronchoconstriction in ovalbumin-sensitized guinea pigs; assay type: in vivo, guinea pig; conditions: 10 mg/kg, i.v., peak airway pressure increase as percent of vehicle animals
Source text: Prevention of antigen-induced bronchoconstriction Male Hartley guinea pigs were given two intraperitoneal injections each containing 50 mcg ovalbumin in a 2:1 emulsion of Freund's complete adjuvant and sterile saline, for a total of 100 mcg ovalbumin per animal. At least three weeks post sensitization injection, sensitized guinea pigs (now approximately 400-600 g) were anesthetized with an intraperitoneal injection of urethane. The carotid artery, jugular vein and the trachea were cannulated. […] Airway pressure was measured and aortic blood pressure was monitored. Body temperature was maintained.
Following a stabilization period of approximately ten minutes, drug in vehicle or vehicle alone was administered intravenously in a volume of 1 ml. All drugs were tested at a dose of 10 mg/kg. One minute post injection, ovalbumin (10 mg/ml) was aerosolized into the airway via a DeVilbiss® ultrasonic nebulizer for a thirty minute period. Peak airway pressure attained during this thirty minute period was measured.

[2] = Emetic effects in ferrets; assay type: in vivo, ferret; conditions: 100 mg/kg
Experimental: Male ferrets, 12-15 weeks old, were fasted overnight prior to experimentation. Animals were given intraperitoneal injections of 100 mg/kg of compound or were dosed with vehicle for controls. Animals were then placed in cages with feed and water and observed for signs of emesis.

[3] = tested on: histamine-induced bronchoconstriction; experiment: Reversal of histamine-induced bronchoconstriction in anesthetized guinea pigs; assay type: in vivo, guinea pig; conditions: for ED50: Cavia porcellus, iv, read-out: Reversal of histamine-induced bronchoconstriction, guinea pigs, ED50 ± s.e.m. (N); for Reversal of histamine-induced bronchoconstriction, maximum effect, % (N) ± s.e.m.: maximum percent reversal, at highest dose
Experimental: Adult male guinea pigs, weighing […], were anesthetized with an intraperitoneal injection of urethane (1.5 gm/kg). After a midline neck incision, the carotid artery and jugular vein were cannulated using polyethylene tubing. The trachea was cannulated using a 15 gauge Leuer Stub. Animals were ventilated at a constant rate and volume (55 breaths per minute and 1 ml per […] body weight) using a Harvard Apparatus small animal respirator. Airway pressure was measured from a side port of the tracheal cannula, using a Statham pressure transducer. Airway pressure and blood pressure were recorded using a Gould physiograph. Body temperature was maintained with a Narco temperature control unit.
Baseline airway and blood pressures were recorded for ten minutes. Aerosolized histamine (0.01%) was then delivered to the airways via a DeVilbiss® ultrasonic nebulizer, inserted in-line between the respirator and the animal. After the histamine-induced bronchoconstriction reached a plateau, as evidenced by an increased airway pressure, a dose-response curve was determined for each compound. […] The maximum effect of each compound was determined from the reversal of bronchoconstriction, as the percent decrease in the bronchoconstrictor response, after administration of the highest dose of that compound.
The ED50 values and maximum effect (%) were calculated using SAS and PROBIT computer analysis. […] The maximum effect is the maximum percent reversal of histamine-induced bronchoconstriction produced by the test compound.

[4] = molecular target: T1, A2 - Adenosine receptor (Rattus norvegicus, UniProt P30543); experiment: Adenosine receptor binding, [3H]NECA, rat striatum homogenate; conditions: read-out: A2 - Adenosine receptor binding, Ki ± s.e.m.
T1 construct: rat striatum homogenate; from tissue; host or cells: rat striatum homogenate
Experimental: A similar procedure utilizing rat striatum homogenate and [^3 H]NECA as ligand was employed to measure A2 -adenosine receptor binding.
The inhibition constants (Ki values) were calculated using EBDA, a log-logit iterative curve fitting program [McPhearson, Comput. Prog.

[5] = Acute toxicity in mice; assay type: in vivo, mouse; conditions: for Acute Toxicity, Approximate lethal dose: i.p.'; for Acute Toxicity (comments): animals showing the side effect
[6] = Cardiovascular effects (heart rate, blood pressure) in anesthetized guinea pigs; assay type: in vivo, guinea pig
Experimental: Aortic blood pressure was recorded from a pressure transducer and the signal was integrated to give a heart rate signal.
Each animal received a single intravenous injection of one compound. […] A group of control animals received injections of vehicle only. Changes in heart rate and blood pressure from pre-injection baseline values produced by drugs or vehicle were compared.

[7] = Solubility at the dose intended for the cardiovascular test; assay type: physicochemical; conditions: dose for guinea pig i.v. cardiovascular test
[8] = molecular target: T2, A1 - Adenosine receptor (Rattus norvegicus, UniProt P25099); experiment: Adenosine receptor binding, [3H]cyclohexyladenosine, rat cortical membranes; conditions: [3H]CHA, 23° C., pH 7.4, read-out: A1 - Adenosine receptor binding, Ki ± s.e.m.
T2 construct: rat cortical tissue was homogenized in ice cold 50 mM Tris HCl buffer; from tissue; host or cells: rat cerebral cortex membranes
T2 sequence (P25099 1-326): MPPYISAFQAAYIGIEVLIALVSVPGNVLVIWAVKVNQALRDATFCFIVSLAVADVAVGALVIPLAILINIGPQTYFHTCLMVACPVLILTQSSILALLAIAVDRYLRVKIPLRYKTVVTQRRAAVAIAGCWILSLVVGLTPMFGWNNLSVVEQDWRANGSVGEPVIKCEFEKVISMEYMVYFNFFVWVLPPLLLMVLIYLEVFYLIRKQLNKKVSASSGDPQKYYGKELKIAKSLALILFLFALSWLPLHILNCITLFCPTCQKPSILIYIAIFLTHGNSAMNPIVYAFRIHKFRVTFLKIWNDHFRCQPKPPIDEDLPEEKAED
Experimental: Briefly, rat cortical tissue was homogenized in ice cold 50 mM Tris HCl buffer (pH 7.4) using a Brinkman Polytron®. The homogenate was centrifuged at 48,000×g for 10 minutes and the resulting tissue pellet was suspended in fresh cold buffer to yield a tissue concentration of 10 mg (wet weight)/ml. […] Following this incubation, the tissue suspension was centrifuged as before and the resulting pellet was suspended in fresh buffer at a concentration of 7-10 mg tissue (wet weight)/ml. […] Dose-inhibition curves were generated with 10-12 concentrations of the test compound using triplicate incubations. The inhibition constants (Ki values) were calculated using EBDA, a log-logit iterative curve fitting program [McPhearson, Comput. Prog.

[9] = tested on: phosphodiesterase; conditions: cited from earlier work
[10] = guinea pigs, i.v., dose required to reverse the histamine response by 50%
[11] = guinea pigs, i.v., 2 × histamine-reversal ED50

T1 sequence (P30543 whole entry): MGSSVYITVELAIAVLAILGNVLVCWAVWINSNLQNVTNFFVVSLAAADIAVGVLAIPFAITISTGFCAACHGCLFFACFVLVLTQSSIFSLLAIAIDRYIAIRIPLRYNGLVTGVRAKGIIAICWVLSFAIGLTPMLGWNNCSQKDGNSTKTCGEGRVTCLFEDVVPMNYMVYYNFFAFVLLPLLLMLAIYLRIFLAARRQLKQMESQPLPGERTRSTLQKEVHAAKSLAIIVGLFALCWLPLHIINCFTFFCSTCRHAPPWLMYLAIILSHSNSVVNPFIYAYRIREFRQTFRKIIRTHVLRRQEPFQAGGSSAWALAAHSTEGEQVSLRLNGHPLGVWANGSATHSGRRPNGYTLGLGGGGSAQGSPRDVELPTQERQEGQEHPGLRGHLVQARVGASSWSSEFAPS

| SMILES | Prevention of antigen-induced bronchoconstriction, % control [1] [% control] | Emetic effects, episodes/responder ± s.e. ([2]; ferrets, i.p., 1 hour) [episodes/responder] | Emetic effects, no. responding / no. tested in 1 hour ([2]; in vivo, ip) | ED50 [3] [mg/kg] | Reversal of histamine-induced bronchoconstriction, maximum effect, % (N) ± s.e.m. ([3]; guinea pigs, i.v.) [%] | Ki [4] [nM] | Acute Toxicity, Approximate lethal dose ([5]; N 3, route head 'p.o.) [mg/kg] | Acute Toxicity (comments) [5] | % Basal blood pressure (mm Hg) ([6]; guinea pig, in vivo, iv) [%] | % Basal heart rate (N) ([6]; guinea pig, in vivo, iv) [%] | ED50 [3, 10] [mg/kg] | solubility at 2 × ED50 [7] | Ki [8] [nM] | % Basal blood pressure (mm Hg) [6, 11] [%] | % Basal heart rate (N) [6, 11] [%] | Emetic effects, no. responding / no. tested in 1 hour ([2]; ferrets, i.p., 1 hour) | Acute Toxicity, Approximate lethal dose ([5]; second printed line of values, N 6, route head 'p.o.) [mg/kg] | inhibition of phosphodiesterase [9] |
| --- | --- | --- | --- | --- | --- | --- | --- | --- | --- | --- | --- | --- | --- | --- | --- | --- | --- | --- |
| Cn1c(=O)c2[nH]c(-c3ccccc3)nc2n(C)c1=O [1,3-Dimethyl-8-phenylxanthine] | 71.7 ± 1.6 | 0 | 0/4 | > 50 | 22.0 ± 3.9 | 644 ± 144 | < 250 | sedation 3/3 | 94 ± 22 | 102 ± 9 | – | – | – | – | – | – | – | – |
| CCCn1c(=O)c2[nH]c(-c3ccccc3)nc2n(CCC)c1=O [1,3-Dipropyl-8-phenylxanthine] | 98.1 ± 12.4 | – | – | – | 33.8 ± 8.5 | 116 ± 100 | > 250 | – | – | – | > 50 | insoluble | 2.75 ± 0.29 | – | – | – | – | – |
| CCCn1c(=O)n(C)c(=O)c2[nH]c(-c3ccccc3)nc21 [1-Methyl-3-propyl-8-phenylxanthine, 1-Methyl-3-n-propyl-8-phenylxanthine] | 106.5 ± 9.7 | – | – | – | 56.3 ± 3.2 | 93 ± 10.2 | > 250 | – | – | – | 16.9 ± 2 | – | 6.3 ± 0.17 | 86 ± 10 | 104 ± 4 | – | – | – |
| CCCn1c(=O)c2[nH]c(-c3ccccc3)nc2n(C)c1=O [3-Methyl-1-propyl-8-phenylxanthine, 3-Methyl-1-n-propyl-8-phenylxanthine] | 36.5 ± 2.0 | 2 | – | – | 79.0 ± 3.4 | 553 ± 55.7 | > 500 | sedation 6/6 | – | – | 2.1 ± 0.4 | – | – | 134 | 100 ± 3 | 2/8 | 250 to 500 | – |
| CC(C)Cn1c(=O)n(C)c(=O)c2[nH]cnc21 [IBMX, 3-isobutyl-1-methylxanthine] | – | – | – | – | – | – | – | – | – | – | – | – | – | – | – | – | – | potent inhibitors of phosphodiesterase |
| Cn1c(=O)c2[nH]cnc2n(C)c1=O [Theophylline] | – | 10.7 ± 3.7 | – | 35.1 ± 5.3 | 72.8 ± 6.6 | – | – | seizures 6/6 | – | – | – | – | – | 66 ± 8 | 132 ± 4 | 7/8 | – | – |
